Data from the supplement of paper PMC4380931.

What was measured:
Assay in all cases: relative viability (cell count relative to DMSO-treated control) (fraction of DMSO control); higher = more viable cells / less drug effect
[1] = tested on: LOXIMVI; conditions: 24 h
Procedure: (§1)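 BRAF V600E/D melanoma cell lines were seeded in 96-well plates, treated in 4 replicates with seven doses (3.16 nM to 3.16 uM) of RAF/MEK inhibitors for 24, 48 or 72 h, and stained with Hoechst 33342 (nuclei) and DEVD-NucView488 caspase-3 substrate. Plates were imaged on an Operetta. Relative viability is the cell count normalised to a DMSO-treated control; apoptosis fraction is the fraction of NucView488-positive nuclei.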

[2] = tested on: WM1552C
Procedure: as §1

[3] = tested on: MZ7MEL
Procedure: as §1

[4] = tested on: RVH421
Procedure: as §1

[5] = tested on: MMACSF
Procedure: as §1

[6] = tested on: WM115
Procedure: as §1

[7] = tested on: C32
Procedure: as §1

Cn1cnc2c(F)c(Nc3ccc(Br)cc3Cl)c(C(=O)NOCCO)cc21 [Selumetinib]
[1]
Conditions	relative viability
0.00316 µM	0.937
0.01 µM	0.976
0.0316 µM	1.02
0.1 µM	1.07
0.316 µM	0.98
1 µM	1
3.16 µM	0.913

relative viability
Conditions	0.00316 µM	0.01 µM	0.0316 µM	0.1 µM	0.316 µM	1 µM	3.16 µM
[2], 24 h	0.97	0.993	1.0822	1.07	1.03	1.06	0.947
[2], 48 h	0.947	0.992	0.956	0.867	0.761	0.676	0.677
[2], 72 h	0.862	0.918	0.806	0.635	0.526	0.44	0.411
[3], 24 h	1.03	1.13	1.11	1.07	1.07	0.997	0.809
[3], 48 h	1.01	1.01	1.04	0.797	0.508	0.504	0.492
[3], 72 h	1.14	1.06	0.58	0.328	0.349	0.308	0.31
[4], 24 h	0.975	0.995	1.032	1.03	1.09	1.02	0.919
[4], 48 h	1.04	0.884	0.795	0.721	0.659	0.658	0.593
[4], 72 h	1.01	0.988	0.849	0.657	0.566	0.511	0.488
[5], 24 h	1.11	1.02	1.022	1.05	0.989	1.04	1.06
[5], 48 h	0.907	1.01	0.88	0.743	0.748	0.664	0.533
[5], 72 h	0.924	0.759	0.563	0.449	0.344	0.21	0.141
[6], 24 h	1.06	1.27	1.36	1.27	1.46	0.89	0.728
[6], 48 h	1.02	1.39	1.37	1.48	1.24	0.823	0.592
[6], 72 h	1.03	1.07	0.918	0.751	0.587	0.409	0.287
[7], 24 h	1.02	1.02	1	0.891	0.938	0.861	0.811
[7], 48 h	1.24	1.09	1.15	0.959	0.71	0.322	0.127
[7], 72 h	0.891	0.998	0.952	0.698	0.347	0.112	0.0615

CCCS(=O)(=O)Nc1ccc(F)c(C(=O)c2c[nH]c3ncc(-c4ccc(Cl)cc4)cc23)c1F [Vemurafenib]
[1]
Conditions	relative viability
0.00316 µM	0.969
0.01 µM	0.94
0.0316 µM	0.959
0.1 µM	0.96
0.316 µM	0.953
1 µM	0.95
3.16 µM	0.805

relative viability
Conditions	0.00316 µM	0.01 µM	0.0316 µM	0.1 µM	0.316 µM	1 µM	3.16 µM
[2], 24 h	0.92	0.969	0.912	1.06	1.03	0.987	0.875
[2], 48 h	0.9247	1	1.01	1	1.06	0.886	0.719
[2], 72 h	1.06	1.14	1.17	1.2	1.06	0.671	0.42
[3], 24 h	0.982	1.11	1.08	1.08	1.15	1.1	0.938
[3], 48 h	1.04	1.09	1.07	1.07	0.955	0.667	0.54
[3], 72 h	1.29	1.39	1.19	0.871	0.587	0.367	0.349
[4], 24 h	0.8497	0.936	0.993	1	1.07	1.04	0.823
[4], 48 h	1.02	0.907	0.932	0.887	0.778	0.684	0.503
[4], 72 h	0.957	1.02	0.959	0.909	0.674	0.539	0.452
[5], 24 h	0.923	0.887	0.976	1	0.89	0.9218	0.905
[5], 48 h	0.908	0.923	0.962	1	0.85	0.713	0.604
[5], 72 h	0.957	0.941	0.939	0.697	0.56	0.29	0.0882
[6], 24 h	1.17	1.2	1.22	1.18	1.17	1.22	1.24
[6], 48 h	1.04	1.24	1.24	1.45	1.73	1.31	0.884
[6], 72 h	0.953	1.04	1.05	1.07	0.855	0.571	0.27
[7], 24 h	0.987	0.995	1.03	0.985	0.997	0.927	0.637
[7], 48 h	1.07	0.901	0.891	0.96	0.988	0.551	0.102
[7], 72 h	1.04	1.07	1.02	0.875	0.684	0.162	0.0274
